Assay results as given in US20100254965A1, “Adenosine Signaling in Diagnosis, Treatment, and Prevention of Priapism and Erectile Dysfunction” (BOARD OF REGENTS ,THE UNIVERSITY OF TEXAS SYSTEM, priority 2006, published 2010).

Columns and labels:
[1] = system: corpus cavernosal strips (CCS); assay: EFS-induced cAMP in CCS of ADA+ and ADA-/- mice; format: cell-based, mouse; conditions: CCS of either ADA-/- or ADA+ mice, EFS 5V 30 Hz; MRS1706 (10 nM), ZM241385 (50 nM), L-NAME (100 μM)
Method: FIG. 19. EFS leads to increased cAMP and cGMP production via A2BR in ADA-deficient mice. (a-b) Corpus cavernosal strips (CCS) of the ADA−/− and ADA+ mice were isolated and treated with 10 μM phenylephrine (PE) to induce precontraction. Then CCS were treated with MRS1706 (10 nM), ZM241385 (50 nM) or L-NAME (100 μM) prior to electrical field stimulation (EFS) at 5V and 30 Hz. 60 second after nerve stimulation, the CCS were quickly frozen and cellular cAMP (a) and cGMP (b) were measured by using commercial enzyme immunoassay kit (Amersham Pharmacia). N=4. Data are expressed as mean±SE. *p<0.05, ADA deficient mice versus the control; **p<0.05, CCS of ADA-deficient mice with MRS1706 and/or L-NAME treatment versus CCS of ADA-deficient mice without treatment; ***p<0.05, CCS of the control mice with MRS1706 and/or L-NAME treatment versus CCS of the control mice without treatment.
Function experiments. […] The contractility of each isolated corpus cavernosum smooth muscle cells (CCSM) strip was measured using an isometric force transducer (AD Instrument Inc., Georgia, Vt., USA). […] The contractile responses of the strips were analysed by adding 10 μM phenylephrine to the bath, and force changes were recorded in response to drug application and to electrical field stimulation. […]

[2] = system: corpus cavernosal strips (CCS); assay: Adenosine-induced relaxation of corpus cavernosal strips (CCS); format: cell-based, mouse
Method: FIG. 16. […] CCS of wild type mice were treated with different concentrations of adenosine with or without DCF (5 μM), a specific inhibitor of adenosine deaminase. Then the extent (mN) of force was monitored. (b) CCS of wild type mice were treated with 100 μM adenosine in the presence of different concentrations of DCF (0-100 uM). Then the extent of force was measured. Data are expressed as mean±SE. *p<0.05, adenosine treated versus the control, **p<0.05, DCF treated versus the adenosine treated.
FIG. 17. A2BR signaling is required for adenosine-mediated corpus cavernosal strips (CCS) relaxation. (a) CCS of wild type mice were treated with different concentrations of theophiline (1-10 μM) in the presence or absence of adenosine (100 μM). The force changes were measured by force transducer. Data are expressed as mean±SE. *p<0.05, adenosine treated versus the control, **p<0.05, theophiline treated versus the untreated, N=5. (b) CCS from wild type, A2AR, A1R A2BR and A3R-deficient mice were treated with different concentrations of adenosine. The relaxation was measured by force transducer. Data are expressed as mean±SE. *p<0.05, adenosine treated versus the wild type. (c) CCS were isolated from wild type and A2BR-deficient mice and treated with different concentrations of adenosine in the presence or absence of L-NAME (100 μM) or MRS1706 (10 μM). 10 min after treatment, cellular extracts were collected and cAMP levels were measured by using a commercial enzyme immunoassay kit (Amersham Pharmacia). Data are expressed as mean±SE. *p<0.05, adenosine treated versus the control without treatment; **p<0.05, adenosine treated with MRS1706 versus the adenosine treated alone; ***p<0.05, CCS of A2BR-deficient mice treated with adenosine versus the CCS of wild type mice treated with adenosine. N=6-7. (d) CCS of A2BR and ADA double deficient mice lost the hypersensitivity to nerve stimulation compared to ADA deficient mice.
Function experiments. The tunica albuginea was cut longitudinally, starting at the most proximal point of the corpus cavernosum (CC) toward the penile shaft, and the erectile tissue was partially dissected free from the tunica. One strip of tissue (0.3×0.3×3 mm) was obtained from each corpus cavernosum. The contractility of each isolated corpus cavernosum smooth muscle cells (CCSM) strip was measured using an isometric force transducer (AD Instrument Inc., Georgia, Vt., USA). The strip was mounted in a thermostatically controlled tissue bath containing aerated PSS (mM: 119 NaCl, 4.7 KCl, 24 NaHCO 3, 1.2 KH2PO4, 2.5 CaCl2, 1.2 MgSO4, 0.023 EDTA, and 11 glucose; 5 ml volume, 95% O2 and 5% CO2, 37° C.) and stretched to a resting tension of 0.1 mN. The contractile responses of the strips were analysed by adding 10 μM phenylephrine to the bath, and force changes were recorded in response to drug application and to electrical field stimulation. The particular electrical field stimulation parameters of 0-30V, 30 HZ with a pulse width of approximately 0.5 ms, are commonly used in the mice. […] The changes of cAMP and cGMP contents in CC strips were subsequently measured by commercial enzyme immunoassay kit (Amersham Pharmacia) (see below).

[3] = system: multiple animal models, including humans; conditions: intracavernous injection, multiple animal models, including humans; cited from earlier work

CCCn1c(=O)c2[nH]c(-c3ccc(OCC(=O)Nc4ccc(C(C)=O)cc4)cc3)nc2n(CCC)c1=O [MRS1706]
EFS-increased cAMP levels were blocked [1]: completely blocked

Nc1ncnc2c1ncn2[C@@H]1O[C@H](CO)[C@@H](O)[C@H]1O [adenosine]
CCS relaxation ([2]; A1R, A2AR and A3R deficient mice and wild type mice): dose-dependent increase in relaxation | CCS relaxation ([2]; CCS from A2BR deficient mice): completely absent | CCS relaxation ([2]; CCS from wild type mice, different concentrations): induced CCS relaxation in a dosage dependent manner | tumescence and penile erection [3]: resulted in tumescence and penile erection
